Biological target: T1, nuclease P1 (P1 nuclease) (Penicillium citrinum, UniProt P24289)
T1 construct: commercial enzyme (New England Biolabs)
T1 sequence (P24289 1-270): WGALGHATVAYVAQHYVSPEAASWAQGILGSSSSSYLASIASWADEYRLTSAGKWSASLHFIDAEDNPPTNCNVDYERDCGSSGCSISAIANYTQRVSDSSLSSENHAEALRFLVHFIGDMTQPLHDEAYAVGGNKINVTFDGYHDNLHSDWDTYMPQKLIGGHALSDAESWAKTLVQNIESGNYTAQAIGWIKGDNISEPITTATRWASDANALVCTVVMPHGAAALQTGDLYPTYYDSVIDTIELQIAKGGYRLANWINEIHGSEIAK
Test: HPLC product analysis
Assay type: biochemical
Settings: 50 mM sodium acetate pH 5.5, 37 C, 1 h, 100 uM substrate

SMILES	HPLC product analysis (partial degradation)	HPLC product analysis
C[S+](CC[C@H](N)C(=O)O)C[C@H]1O[C@@H](n2cnc3c(N)ncnc32)[C@H](O)[C@@H]1OP(=O)(O)OC[C@H]1O[C@@H](n2cnc3c(N)ncnc32)[C@H](O)[C@@H]1O (some centres unmarked) [SAM-AMP]	we observed only partial degradation of SAM-AMP	
Nc1ncnc2c1ncn2[C@@H]1O[C@H](COP(=O)(O)O[C@H]2[C@@H](O)[C@H](n3cnc4c(N)ncnc43)O[C@@H]2CSCC[C@H](N)C(=O)O)[C@@H](O)[C@H]1O [SAH-AMP]		SAH-AMP was completely degraded by nuclease P1

— paper PMC10600005 (Nature, 2023)
